Results reported in patent US20240158446A1, “CYCLIC COMPOUND HAVING SELECTIVE INHIBITORY ACTION ON KRAS OVER HRAS AND NRAS” (CHUGAI SEIYAKU KABUSHIKI KAISHA, priority 2021, published 2024).
Where two headings read alike, the source gives them in different places. Where a SMILES comes first, the peptide text is derived from it. Bridges are numbered along the chain shown (N, C = ends). [ ]: non-standard residue; d: D form. The star is where a group is joined. hPhe(3-Cl-4-CF3) = N[C@@H](CCc1ccc(C(F)(F)F)c(Cl)c1)C(=O)O; NPrPhe(4-CF3) = CCCN[C@@H](Cc1ccc(C(F)(F)F)cc1)C(=O)O; NEtPhe(4-CF3) = CCN[C@@H](Cc1ccc(C(F)(F)F)cc1)C(=O)O; NEtPhe(4-Me) = CCN[C@@H](Cc1ccc(C)cc1)C(=O)O; NMeGly(cPent) = CN[C@H](C(=O)O)C1CCCC1; Pro(4,4-F2) = O=C(O)[C@@H]1CC(F)(F)CN1; Hyp = O=C(O)[C@@H]1C[C@@H](O)CN1; NMeD = CN[C@@H](CC(=O)O)C(=O)O; NMeL = CN[C@@H](CC(C)C)C(=O)O; Morpholide = C1CN(*)CCO1; NMeA = CN[C@@H](C)C(=O)O; Ac5c = NC1(C(=O)O)CCCC1; Aze = O=C(O)[C@@H]1CCN1; Ac4c = NC1(C(=O)O)CCC1; Ac3c = NC1(C(=O)O)CC1; NPrGly = CCCNCC(=O)O; Sar = CNCC(=O)O

What was measured:
[1] = target: GDP-bound NRAS wild-type protein (Homo sapiens, UniProt P01111); assay: Binding to NRAS by surface plasmon resonance (SPR), Single Cycle Kinetics; conditions: for NRAS/KRAS (ratio of KD value for NRAS to KD value for KRAS) / NRAS/KRAS (ratio of KD value with respect to NRAS to KD value with respect to KRAS): SPR, GDP-bound NRAS wild-type protein vs GDP-bound KRAS wild-type protein; for NRAS/KRAS (ratio of KD value with respect to GDP-bound NRAS wild-type protein to KD value with respect to KRAS): SPR KD ratio NRAS/KRAS, class symbols
Chain of GDP-bound NRAS wild-type protein (P01111 whole entry): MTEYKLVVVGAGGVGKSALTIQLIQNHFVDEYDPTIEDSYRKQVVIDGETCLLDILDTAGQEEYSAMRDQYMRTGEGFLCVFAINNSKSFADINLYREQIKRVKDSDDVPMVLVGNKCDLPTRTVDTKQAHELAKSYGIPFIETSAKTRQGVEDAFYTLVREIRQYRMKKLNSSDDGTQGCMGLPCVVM

[2] = target: GDP-bound KRAS wild-type protein (Homo sapiens, UniProt P01116); assay: Binding to KRAS by surface plasmon resonance (SPR), Single Cycle Kinetics; conditions: GDP-bound KRAS wild-type protein, read-out: KRAS KD
Chain of GDP-bound KRAS wild-type protein (P01116 whole entry): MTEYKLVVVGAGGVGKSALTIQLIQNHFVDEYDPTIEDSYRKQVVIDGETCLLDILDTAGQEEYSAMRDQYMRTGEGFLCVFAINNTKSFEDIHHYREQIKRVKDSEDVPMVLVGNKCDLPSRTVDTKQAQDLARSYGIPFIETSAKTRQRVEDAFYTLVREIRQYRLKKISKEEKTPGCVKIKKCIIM

[3] = target: GDP-bound HRAS wild-type protein (Homo sapiens, UniProt P01112); assay: Binding to HRAS by surface plasmon resonance (SPR), Single Cycle Kinetics; conditions: for HRAS/KRAS (ratio of KD value for HRAS to KD value for KRAS) / HRAS/KRAS (ratio of KD value with respect to HRAS to KD value with respect to KRAS): SPR, GDP-bound HRAS wild-type protein vs GDP-bound KRAS wild-type protein; for HRAS/KRAS (ratio of KD value with respect to GDP-bound HRAS wild-type protein to KD value with respect to KRAS): SPR KD ratio HRAS/KRAS, class symbols
Chain of GDP-bound HRAS wild-type protein (P01112 whole entry): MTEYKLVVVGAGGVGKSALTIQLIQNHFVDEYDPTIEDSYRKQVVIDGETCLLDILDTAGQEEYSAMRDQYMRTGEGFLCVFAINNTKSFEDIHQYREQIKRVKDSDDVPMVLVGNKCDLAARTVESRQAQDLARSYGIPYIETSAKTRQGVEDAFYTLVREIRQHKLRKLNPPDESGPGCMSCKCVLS

[4] = SPR Single Cycle Kinetics, 1:1 binding model

| SMILES | NRAS/KRAS (ratio of KD value for NRAS to KD value for KRAS) [1] | Kd [2, 4] [pM] | HRAS/KRAS (ratio of KD value for HRAS to KD value for KRAS) [3] | NRAS/KRAS (ratio of KD value with respect to NRAS to KD value with respect to KRAS) [1] | HRAS/KRAS (ratio of KD value with respect to HRAS to KD value with respect to KRAS) [3] | Kd ([2]; SPR, Single Cycle Kinetics) [pM] | NRAS/KRAS (ratio of KD value with respect to GDP-bound NRAS wild-type protein to KD value with respect to KRAS) [1] | HRAS/KRAS (ratio of KD value with respect to GDP-bound HRAS wild-type protein to KD value with respect to KRAS) [3] |
| --- | --- | --- | --- | --- | --- | --- | --- | --- |
| CCCN1CC(=O)N2CC[C@H]2C(=O)N(CCC)[C@@H](Cc2ccc(C(F)(F)F)cc2)C(=O)N(C)CC(=O)N[C@@H](CCc2ccc(C(F)(F)F)c(Cl)c2)C(=O)N2CCC[C@H]2C(=O)NC2(CCCC2)C(=O)N(C)[C@@H](C2CCCC2)C(=O)N(C)[C@H](C(=O)N2CCOCC2)CC(=O)N(C)[C@@H](CC(C)C)C(=O)N[C@@H]([C@@H](C)CC)C1=O [PP0274] ([NMeL]I[NPrGly][Aze][NPrPhe(4-CF3)][Sar][hPhe(3-Cl-4-CF3)]P[Ac5c][NMeGly(cPent)][NMeD]-Morpholide; lactam N-11) | C (A compound having a KD ratio of 0.1 or more and less than 3 is denoted as C) | 470 | B (a compound having 3 or more and less than 10 is denoted as B) | – | – | – | – | – |
| CC[C@H](C)[C@@H]1NC(=O)[C@H](C)N(C)C(=O)C[C@@H](C(=O)N(C)C)N(C)C(=O)[C@H](C2CCCC2)N(C)C(=O)C2(CCC2)NC(=O)[C@@H]2CCCN2C(=O)[C@H](CCc2cc(F)c(C(F)(F)F)c(F)c2)NC(=O)CN(C)C(=O)[C@H](Cc2ccc(C(F)(F)F)cc2)N2CCCCC[C@@H](C2=O)N(C)C(=O)CN(C)C1=O [PP0470] | – | 550 | – | B (a compound having 3 or more and less than 10 is denoted as B) | B (a compound having 3 or more and less than 10 is denoted as B) | – | – | – |
| CCCN1C(=O)[C@H](C2CCCC2)N(C)C(=O)C2(CCC2)NC(=O)[C@@H]2C[C@@H](OCC)CN2C(=O)[C@H](CCc2cc(F)c(C(F)(F)F)c(F)c2)NC(=O)CN(C)C(=O)[C@H](Cc2ccc(C(F)(F)F)cc2)N2CCCCC[C@@H](C2=O)N(C)C(=O)CN(C)C(=O)[C@H]([C@@H](C)CC)NC(=O)[C@H](CC(C)C)N(C)C(=O)C[C@H]1C(=O)N1CCOCC1 [PP0639] | – | 8500 | – | B (a compound having 3 or more and less than 10 is denoted as B) | B (a compound having 3 or more and less than 10 is denoted as B) | – | – | – |
| C#CCN1CC(=O)N(C)[C@H]2C/C=C\CCN(C2=O)[C@@H](Cc2ccc(C)cc2)C(=O)N(C)CC(=O)N[C@@H](CCc2cc(F)c(C(F)(F)F)c(F)c2)C(=O)N2C[C@H](OCC)C[C@H]2C(=O)NC2(CC(C)(C)C2)C(=O)N(C)[C@@H](C2CCCC2)C(=O)N(C)[C@H](C(=O)N(C)C)CC(=O)N(C)[C@@H](CC(C)C)C(=O)N[C@@H]([C@@H](C)CC)C1=O [PP2052] | A (a compound having 10 or more and less than 20 is denoted as A) | – | A (a compound having 10 or more and less than 20 is denoted as A) | – | – | 160 | – | – |
| CCCN1C(=O)CN(C)C(=O)CNC(=O)[C@H]([C@@H](C)CC)NC(=O)[C@H](CC(C)C)N(C)C(=O)C[C@@H](C(=O)N2CCOCC2)N(C)C(=O)[C@H](C2CCCC2)N(C)C(=O)C2(CCC2)NC(=O)[C@@H]2C[C@@H](OCC)CN2C(=O)[C@H](CCc2ccc(C(F)(F)F)c(Cl)c2)NC(=O)CN(C)C(=O)[C@@H]1Cc1ccc(C(F)(F)F)cc1 [PP0397] ([NMeL]IG[Sar][NPrPhe(4-CF3)][Sar][hPhe(3-Cl-4-CF3)][Hyp](Et)[Ac4c][NMeGly(cPent)][NMeD]-Morpholide; lactam N-11) | C (A compound having a KD ratio of 0.1 or more and less than 3 is denoted as C) | 120 | C (A compound having a KD ratio of 0.1 or more and less than 3 is denoted as C) | – | – | – | – | – |
| CCO[C@@H]1C[C@H]2C(=O)NC3(CCC3)C(=O)N(C)[C@@H](C3CCCC3)C(=O)N(CCC3CCCC3)[C@H](C(=O)N(C)C)CC(=O)N(C)[C@@H](CC)C(=O)N[C@@H]([C@@H](C)CC)C(=O)N(C)CC(=O)N(C)[C@H]3CCCCCN(C3=O)[C@@H](Cc3ccc(C(F)(F)F)cc3)C(=O)N(C)CC(=O)N[C@@H](CCc3cc(F)c(C(F)(F)F)c(F)c3)C(=O)N2C1 [PP0636] | – | 8600 | – | A (a compound having 10 or more and less than 20 is denoted as A) | A (a compound having 10 or more and less than 20 is denoted as A) | – | – | – |
| CCCO[C@@H]1C[C@H]2C(=O)NC3(CC(C)(C)C3)C(=O)N(C)[C@@H](C(CC)CC)C(=O)N(C)[C@H](C(=O)N(C)C)CC(=O)N(C)[C@H]3CCCc4ccc(cc4)C[C@@H](C(=O)N(C)CC(=O)N[C@@H](CCc4ccc(C(F)(F)F)c(OC)c4)C(=O)N2C1)N1CC/C=C\C[C@@H](C1=O)N(C)C(=O)CN(C)C(=O)[C@H]([C@@H](C)CC)NC3=O [PP3063] | B (a compound having 3 or more and less than 10 is denoted as B) | – | B (a compound having 3 or more and less than 10 is denoted as B) | – | – | 560 | – | – |
| CCO[C@@H]1C[C@H]2C(=O)NC3(CCCC3)C(=O)N(C)[C@@H](C3CCCC3)C(=O)N(C)[C@H](C(=O)N3CCOCC3)CC(=O)N(C)[C@@H](CC(C)C)C(=O)N[C@@H]([C@@H](C)CC)C(=O)N(C)[C@@H](C)C(=O)N3CC[C@H]3C(=O)N(CC)[C@@H](Cc3ccc(C)cc3)C(=O)N(C)CC(=O)N[C@@H](CCc3ccc(C(F)(F)F)c(Cl)c3)C(=O)N2C1 [PP0014] ([NMeL]I[NMeA][Aze][NEtPhe(4-Me)][Sar][hPhe(3-Cl-4-CF3)][Hyp](Et)[Ac5c][NMeGly(cPent)][NMeD]-Morpholide; lactam N-11) | C (A compound having a KD ratio of 0.1 or more and less than 3 is denoted as C) | 90 | C (A compound having a KD ratio of 0.1 or more and less than 3 is denoted as C) | – | – | – | – | – |
| CCO[C@@H]1C[C@H]2C(=O)NC3(CCC3)C(=O)N(C)[C@@H](C3CCCC3)C(=O)N(C)[C@H](C(=O)N(C)C)CC(=O)N(C)[C@@H](Cc3cccc(Cl)c3)C(=O)N[C@@H]([C@@H](C)CC)C(=O)N(C)CC(=O)N(C)[C@H]3CCCCCN(C3=O)[C@@H](Cc3ccc(C(F)(F)F)cc3)C(=O)N(C)CC(=O)N[C@@H](CCc3cc(F)c(C(F)(F)F)c(F)c3)C(=O)N2C1 [PP0939] | B (a compound having 3 or more and less than 10 is denoted as B) | – | B (a compound having 3 or more and less than 10 is denoted as B) | – | – | 910 | – | – |
| CCO[C@@H]1C[C@H]2C(=O)NC3(CC(C)(C)C3)C(=O)N(C)[C@@H](CC(C)(C)C)C(=O)N(C)[C@H](C(=O)N(C)C)CC(=O)N(C)[C@@H](C(C)C)C(=O)N[C@@H]([C@@H](C)CC)C(=O)N(C)CC(=O)N(C)[C@H]3C/C=C\CCN(C3=O)[C@@H](Cc3ccc(C(F)(F)F)cc3)C(=O)N(C)CC(=O)N[C@@H](CCc3ccc(C(F)(F)F)c(OC)c3)C(=O)N2C1 [PP2773] | – | 520 | – | – | – | – | B (a compound having 3 or more and less than 10 is denoted as B) | B (a compound having 3 or more and less than 10 is denoted as B) |
| CCC[C@H]1C(=O)N[C@@H](C2CCCC2)C(=O)N(C)CC(=O)N(C)[C@H]2C/C=C\CCN(C2=O)[C@@H](Cc2ccc(C)cc2)C(=O)N(C)CC(=O)N[C@@H](CCc2ccc(C(F)(F)F)c(OC)c2)C(=O)N2C[C@H](OCC)C[C@H]2C(=O)NC2(CC(C)(C)C2)C(=O)N(C)[C@@H](C2CCCC2)C(=O)N(C)[C@H](C(=O)N(C)C)CC(=O)N1C [PP2992] | AA (a compound having 20 or more is denoted as AA) | – | A (a compound having 10 or more and less than 20 is denoted as A) | – | – | 190 | – | – |
| CCCC[C@H]1C(=O)N[C@@H]([C@@H](C)CC)C(=O)N(C)CC(=O)N(C)[C@H]2C/C=C\CCN(C2=O)[C@@H](Cc2ccc(C)cc2)C(=O)N(C)CC(=O)N[C@@H](CCc2cc(F)c(C(F)(F)F)c(F)c2)C(=O)N2C[C@H](OCC)C[C@H]2C(=O)NC2(CCC2)C(=O)N(C)[C@@H](C2CCCC2)C(=O)N(C)[C@H](C(=O)N(C)CC)CC(=O)N1C [PP2796] | – | 120 | – | – | – | – | A (a compound having 10 or more and less than 20 is denoted as A) | A (a compound having 10 or more and less than 20 is denoted as A) |
| CC[C@H](C)[C@@H]1NC(=O)[C@H](CC(C)C)N(C)C(=O)C[C@@H](C(=O)N2CCOCC2)N(C)C(=O)[C@H](C2CCCC2)N(C)C(=O)C2(CC2)NC(=O)[C@@H]2CCCN2C(=O)[C@H](CCc2ccc(C(F)(F)F)c(Cl)c2)NC(=O)CN(C)C(=O)[C@H](Cc2ccc(C(F)(F)F)cc2)N(CC)C(=O)[C@@H]2CCN2C(=O)[C@H](C)N(C)C1=O [PP0220] ([NMeL]I[NMeA][Aze][NEtPhe(4-CF3)][Sar][hPhe(3-Cl-4-CF3)]P[Ac3c][NMeGly(cPent)][NMeD]-Morpholide; lactam N-11) | C (A compound having a KD ratio of 0.1 or more and less than 3 is denoted as C) | 350 | C (A compound having a KD ratio of 0.1 or more and less than 3 is denoted as C) | – | – | – | – | – |
| CCCN1C(=O)CN(C)C(=O)CNC(=O)[C@H]([C@@H](C)CC)NC(=O)[C@H](CC(C)C)N(C)C(=O)C[C@@H](C(=O)N(C)C)N(C)C(=O)[C@H](C2CCCC2)N(C)C(=O)C2(CCC2)NC(=O)[C@@H]2CC(F)(F)CN2C(=O)[C@H](CCc2ccc(C(F)(F)F)c(Cl)c2)NC(=O)CN(C)C(=O)[C@@H]1Cc1ccc(C(F)(F)F)cc1 [PP0420] ([NMeL]IG[Sar][NPrPhe(4-CF3)][Sar][hPhe(3-Cl-4-CF3)][Pro(4,4-F2)][Ac4c][NMeGly(cPent)][NMeD]-NMe2; lactam N-11) | – | 34 | – | B (a compound having 3 or more and less than 10 is denoted as B) | C (A compound having a KD ratio of 0.1 or more and less than 3 is denoted as C) | – | – | – |
